Laboratory results from patent publication US20240228535A1 (priority 2022, published 2024).

target: SARS2 coronavirus 3CL protease (Severe acute respiratory syndrome coronavirus 2, UniProt P0DTD1); experiment: biochemical; settings: 5 nM enzyme, 30 min pre-incubation with compound, 15 μM peptide substrate, 4 h at room temperature; read-out: FRET Potency (nM); IC50 values in the SARS2 3CLPro FRET assay

| Compound | IC50 [nM] |
| --- | --- |
| C[C@@H]1C[C@@H](C[C@H](NC(=O)c2cc(Cl)ccc2NC(=O)C2CC2C(F)(F)F)C(=O)C(=O)NC2CC2)C(=O)N1 (stereo partly drawn) [Example 97, 5-chloro-N-[(1S)-3-(cyclopropylamino)-1-[[(3S,5R)-5-methyl-2-oxo-pyrrolidin-3-yl]methyl]-2,3-dioxo-propyl]-2-[[2-(trifluoromethyl)cyclopropane-carbonyl]amino]benzamide] | 7.7 |
| C[C@@H]1C[C@@H](C[C@H](NC(=O)c2cc(Cl)ccc2NC(=O)C2CC2C(F)(F)F)C(=O)C(=O)NC2CC2)C(=O)N1 (stereo partly drawn) [Example 98, 5-chloro-N-[(1S)-3-(cyclopropylamino)-1-[[(3S,5R)-5-methyl-2-oxo-pyrrolidin-3-yl]methyl]-2,3-dioxo-propyl]-2-[[2-(trifluoromethyl)cyclopropane-carbonyl]amino]benzamide] | 9.5 |
| C[C@@H]1C[C@@H](C[C@H](NC(=O)c2cc(F)c(F)cc2NC(=O)c2cncc(C(F)(F)F)c2)C(=O)C(=O)NC2CC2)C(=O)N1 [Example 99, N-[2-[[(1S)-3-(cyclopropylamino)-1-[[(3S,5R)-5-methyl-2-oxo-pyrrolidin-3-yl]methyl]-2,3-dioxo-propyl]carbamoyl]-4,5-difluoro-phenyl]-5-(trifluoromethyl)pyridine-3-carboxamide] | 13 |
| C[C@@H]1C[C@@H](C[C@H](NC(=O)c2cc(Cl)ccc2NC(=O)c2ccn(CC(F)(F)F)n2)C(=O)C(=O)NC2CC2)C(=O)N1 [Example 100, N-[4-chloro-2-[[(1S)-3-(cyclopropylamino)-1-[[(3S,5R)-5-methyl-2-oxo-pyrrolidin-3-yl]methyl]-2,3-dioxo-propyl]carbamoyl]phenyl]-1-(2,2,2-trifluoroethyl)pyrazole-3-carboxamide] | 5.9 |
| COC(=O)Nc1ccc(Cl)cc1C(=O)N[C@@H](C[C@@H]1C[C@@H](C)NC1=O)C(=O)C(=O)NC1CC1 [Example 101, methyl N-[4-chloro-2-[(1S)-3-(cyclopropylamino)-1-[[(3S,5R)-5-methyl-2-oxo-pyrrolidin-3-yl]methyl]-2,3-dioxo-propyl]carbamoyl]phenyl] carbamate] | 7.8 |
| O=C(NC1CC1)C(=O)[C@H](C[C@@H]1CCNC1=O)NC(=O)c1cc(Cl)ccc1NC(=O)C1(C(F)(F)F)CC1 [Example 102] | 12.9 |
| CNC(=O)C(=O)[C@H](C[C@@H]1C[C@@H](C)NC1=O)NC(=O)c1ccccc1NC(=O)OC [Example 103, methyl N-[2-[[(1S)-3-(methylamino)-1-[[(3S,5R)-5-methyl-2-oxo-pyrrolidin-3-yl]methyl]-2,3-dioxo-propyl]carbamoyl]phenyl] carbamate] | 86.2 |
| CNC(=O)C(=O)[C@H](C[C@@H]1C[C@@H](C)NC1=O)NC(=O)c1cc(F)ccc1NC(=O)OC [Example 104, methyl N-[4-fluoro-2-[(1S)-3-(methylamino)-1-[[(3S,5R)-5-methyl-2-oxo-pyrrolidin-3-yl]methyl]-2,3-dioxo-propyl]carbamoyl]phenyl] carbamate] | 15.3 |
| C[C@@H]1C[C@@H](C[C@H](NC(=O)c2cc(Cl)ccc2NC(=O)N(C)CC2CCC(F)(F)CC2)C(=O)C(=O)NC2CC2)C(=O)N1 [Example 105, 5-chloro-N—((S)-4-(cyclopropylamino)-1-((3S,5R)-5-methyl-2-oxopyrrolidin-3-yl)-3,4-dioxobutan-2-yl)-2-(3-((4,4-difluorocyclohexyl)methyl)-3-methylureido)benzamide] | 10.9 |
| CNC(=O)C(=O)[C@H](C[C@@H]1CCNC1=O)NC(=O)c1cc(Cl)ccc1NC(=O)OC [Example 106] | 4.3 |
| COC(=O)Nc1ccc(Cl)cc1C(=O)N[C@@H](C[C@@H]1C[C@@H](C)NC1=O)C(=O)C(N)=O [Example 107, methyl N-[2-[[(1S)-3-amino-1-[[(3S,5R)-5-methyl-2-oxo-pyrrolidin-3-yl]methyl]-2,3-dioxo-propyl]carbamoyl]-4-chloro-phenyl]carbamate] | 12.6 |
